Laboratory results published in patent US10913738B2 (BRISTOL-MYERS SQUIBB COMPANY, priority 2017, dated 2021).
Read-outs that look alike come from different tables or passages of the source.

Tests used:
[1] = target: T1, His-GST-TVMV-hRIPK1(1-324) (Homo sapiens, UniProt Q13546); experiment: RIPK1 HTRF Binding Assay
T1 construct: The coding region of human RIPK1(1-324) flanked by NdeI site at 5′ end; made in house; host or cells: Spodoptera frugiperda (Sf9) insect cells, baculovirus
T1 sequence (Q13546 1-324): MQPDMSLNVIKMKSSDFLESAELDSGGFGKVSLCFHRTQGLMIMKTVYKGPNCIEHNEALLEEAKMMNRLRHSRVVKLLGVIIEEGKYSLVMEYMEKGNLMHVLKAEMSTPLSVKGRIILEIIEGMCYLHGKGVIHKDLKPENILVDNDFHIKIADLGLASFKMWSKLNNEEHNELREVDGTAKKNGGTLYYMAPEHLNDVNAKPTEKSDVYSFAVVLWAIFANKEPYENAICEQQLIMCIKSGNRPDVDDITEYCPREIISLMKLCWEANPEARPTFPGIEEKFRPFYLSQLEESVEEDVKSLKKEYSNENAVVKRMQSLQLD

[2] = system: MLKL phosphorylation in HT29-L23 human colorectal adenocarcinoma cells; experiment: MLKL Phosphorylation High-Content Assay; format: cell-based; settings: Homo sapiens
Method in brief: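 Cells incubated six hours at 37° C., then phospho-MLKL (S358) immunostained overnight at 4° C. and imaged by high-content microscopy. Phosphorylation quantified as mean circ-ring average intensity ratio; IC50 and Ymax from 4-parameter logistic fits.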

[3] = x marks IC50 class <20 nM, read-out: RIPK1 HTRF binding <20 nM
[4] = x marks IC50 class 20-200 nM, read-out: pMLKL cell activity 20-200 nM
[5] = x marks IC50 class <20 nM, read-out: pMLKL cell activity <20 nM
[6] = x marks IC50 class 20-200 nM, read-out: RIPK1 HTRF binding 20-200 nM
[7] = x marks IC50 class >200 nM, read-out: pMLKL cell activity >200 nM

**Q.** With `Cc1nc(C)c(-c2ccn3nc(N)nc3c2)cc1C(=O)NCc1c(F)cccc1OCC1CCCC1` [Example 180, 5-12-amino-[1,2,4]triazolo[1,5-a]pyridin-7-yl}-N-{[2-(cyclopentylmethoxy)-6-fluorophenyllmethyl}-2,6-dimethylpyridine-3-carboxamide] as the compound, how does the IC50 [1, 3] read?
**A.** < 20 nM

**Q.** And the IC50 [2, 4]?
**A.** 20 to 200 nM

**Q.** How did the IC50 [1, 3] turn out when `Cc1nc(C)c(-c2ccn3nc(N)nc3c2)cc1C(=O)NCc1cc(OC(F)(F)F)ccc1F` [Example 181, 5-{2-amino-[1,2,4]triazolo[1,5-a]pyridin-7-yl}-N-{[2-fluoro-5-(trifluoromethoxy)phenyl]methyl}-2,6-dimethylpyridine-3-carboxamide] was run?
**A.** < 20 nM

**Q.** What about the IC50 [2, 5] of the same compound?
**A.** < 20 nM

**Q.** How did the IC50 [1, 3] turn out when `Cc1nc(C)c(-c2ccn3nc(N)nc3c2)cc1C(=O)NCc1ncccc1OCC1CCCC1` [Example 182, 5-{2-amino-[1,2,4]triazolo[1,5-a]pyridin-7-yl}-N-{[3-(cyclopentylmethoxy)pyridin-2-yl]methyl}-2,6-dimethylpyridine-3-carboxamide] was run?
**A.** < 20 nM

**Q.** What about the IC50 [2, 4] of the same compound?
**A.** 20 to 200 nM

**Q.** What does the source list for `Cc1nc(C)c(-c2ccn3nc(N)nc3c2)cc1C(=O)NCc1cccnc1OCC1CCCC1` [Example 183]?
**A.** IC50 [1, 6]: 20 to 200 nM; IC50 [2, 4]: 20 to 200 nM

**Q.** For `Cc1nc(C)c(-c2ccn3nc(N)nc3c2)cc1C(=O)NCc1cc(F)cc(F)c1OCC1CC1` [Example 184, 5-{2-amino-[1,2,4]triazolo[1,5-a]pyridin-7-yl}-N-{[2-(cyclopropylmethoxy)-3,5-difluorophenyl]methyl}-2,6-dimethylpyridine-3-carboxamide], which IC50 [1, 3] is on record?
**A.** < 20 nM

**Q.** And the IC50 [2, 5]?
**A.** < 20 nM

**Q.** Which IC50 [1, 3] does the source give for `Cc1nc(C)c(-c2ccn3nc(N)nc3c2)cc1C(=O)NCc1ccccc1OCC1CC1` [Example 185, 5-{2-amino-[1,2,4]triazolo[1,5-a]pyridin-7-yl}-N-{[2-(cyclopropylmethoxy)phenyl]methyl}-2,6-dimethylpyridine-3-carboxamide] here?
**A.** < 20 nM

**Q.** And the IC50 [2, 5]?
**A.** < 20 nM

**Q.** Which results are given for `Cc1nc(C)c(-c2ccn3nc(N)nc3c2)cc1C(=O)NCc1ccccc1OCC1CCCC1` [Example 186, 5-{2-amino-[1,2,4]triazolo[1,5-a]pyridin-7-yl}-N-{[2-(cyclopentylmethoxy)phenyl]methyl}-2,6-dimethylpyridine-3-carboxamide]?
**A.** IC50 [1, 3]: < 20 nM; IC50 [2, 4]: 20 to 200 nM

**Q.** `Cc1nc(C)c(-c2ccn3nc(N)nc3c2)cc1C(=O)NCc1cccnc1OCC1CCC1` [Example 187, 5-{2-amino-[1,2,4]triazolo[1,5-a]pyridin-7-yl}-N-{[2-(cyclobutylmethoxy)pyridin-3-yl]methyl}-2,6-dimethylpyridine-3-carboxamide] was tested. Which IC50 [1, 6] did it give?
**A.** 20 to 200 nM

**Q.** And the IC50 [2, 4]?
**A.** 20 to 200 nM

**Q.** Which IC50 [1, 3] does the source give for `Cc1nc(C)c(-c2ccn3nc(N)nc3c2)cc1C(=O)NCc1cc(F)cc(F)c1OCC1CCCC1` [Example 188, 5-{2-amino-[1,2,4]triazolo[1,5-a]pyridin-7-yl}-N-{[2-(cyclopentylmethoxy)-3,5-difluorophenyl]methyl}-2,6-dimethylpyridine-3-carboxamide] here?
**A.** < 20 nM

**Q.** And the IC50 [2, 5]?
**A.** < 20 nM

**Q.** `Cc1nc(C)c(-c2ccn3nc(N)nc3c2)cc1C(=O)NCc1cccc(OC(F)(F)F)c1` [Example 189, 5-{2-amino-[1,2,4]triazolo[1,5-a]pyridin-7-yl}-2,6-dimethyl-N-{[3-(trifluoromethoxy)phenyl]methyl}pyridine-3-carboxamide] was tested. Which IC50 [1, 6] did it give?
**A.** 20 to 200 nM

**Q.** What about the IC50 [2, 4] of the same compound?
**A.** 20 to 200 nM

**Q.** For `Cc1nc(C)c(-c2ccn3nc(N)nc3c2)cc1C(=O)NCc1cc(F)ccc1OCC1CCCC1` [Example 190, 5-{2-amino-[1,2,4]triazolo[1,5-a]pyridin-7-yl}-N-{[2-(cyclopentylmethoxy)-5-fluorophenyl]methyl}-2,6-dimethylpyridine-3-carboxamide], which IC50 [1, 3] is on record?
**A.** < 20 nM

**Q.** What about the IC50 [2, 5] of the same compound?
**A.** < 20 nM

**Q.** Which results are given for `[2H]C([2H])(NC(=O)c1cc(-c2ccn3nc(N)nc3c2)c(C)nc1C)c1cc(OC(F)(F)F)ccc1F` [Example 191]?
**A.** IC50 [1, 3]: < 20 nM; IC50 [2, 5]: < 20 nM

**Q.** Which results are given for `Cc1nc(C)c(-c2ccn3nc(N)nc3c2)cc1C(=O)NCc1cc(C(F)(F)F)ccc1F` [Example 192, 5-{2-amino-[1,2,4]triazolo[1,5-a]pyridin-7-yl}-N-{[2-fluoro-5-(trifluoromethyl)phenyl]methyl}-2,6-dimethylpyridine-3-carboxamide]?
**A.** IC50 [1, 3]: < 20 nM; IC50 [2, 5]: < 20 nM

**Q.** What does the source list for `COc1nc(C)c(-c2ccn3nc(N)nc3c2)cc1C(=O)NCCc1ccccc1OC(F)(F)F` [Example 194, 5-{2-amino-[1,2,4]triazolo[1,5-a]pyridin-7-yl}-2-methoxy-6-methyl-N-{2-[2-(trifluoromethoxy)phenyl]ethyl}pyridine-3-carboxamide]?
**A.** IC50 [1, 6]: 20 to 200 nM; IC50 [2, 7]: > 200 nM

**Q.** For `COc1nc(C)c(-c2ccn3nc(N)nc3c2)cc1C(=O)NCc1ccccc1OC1CCOCC1` [Example 195, 5-{2-amino-[1,2,4]triazolo[1,5-a]pyridin-7-yl}-2-methoxy-6-methyl-N-{[2-(oxan-4-yloxy)phenyl]methyl}pyridine-3-carboxamide], which IC50 [1, 3] is on record?
**A.** < 20 nM

**Q.** And the IC50 [2, 5]?
**A.** < 20 nM

**Q.** How did the IC50 [1, 6] turn out when `COc1nc(C)c(-c2ccn3nc(N)nc3c2)cc1C(=O)NCc1cc(F)cc(C(F)(F)F)c1` [Example 196, 5-{2-amino-[1,2,4]triazolo[1,5-a]pyridin-7-yl}-N-{[3-fluoro-5-(trifluoromethyl)phenyl]methyl}-2-methoxy-6-methylpyridine-3-carboxamide] was run?
**A.** 20 to 200 nM

**Q.** What about the IC50 [2, 7] of the same compound?
**A.** > 200 nM

**Q.** How did the IC50 [1, 3] turn out when `COc1nc(C)c(-c2ccn3nc(N)nc3c2)cc1C(=O)NCc1cc(C(F)(F)F)ccc1F` [Example 197, 5-{2-amino-[1,2,4]triazolo[1,5-a]pyridin-7-yl}-N-{[2-fluoro-5-(trifluoromethyl)phenyl]methyl}-2-methoxy-6-methylpyridine-3-carboxamide] was run?
**A.** < 20 nM

**Q.** What about the IC50 [2, 4] of the same compound?
**A.** 20 to 200 nM

**Q.** Which results are given for `COc1nc(C)c(-c2ccn3nc(N)nc3c2)cc1C(=O)NCCc1cccc(OC(F)(F)F)c1` [Example 198, 5-{2-amino-[1,2,4]triazolo[1,5-a]pyridin-7-yl}-2-methoxy-6-methyl-N-{2-[3-(trifluoromethoxy)phenyl]ethyl}pyridine-3-carboxamide]?
**A.** IC50 [1, 6]: 20 to 200 nM; IC50 [2, 7]: > 200 nM

**Q.** How did the IC50 [1, 6] turn out when `COc1nc(C)c(-c2ccn3nc(N)nc3c2)cc1C(=O)NCc1cccc(C(F)(F)F)c1` [Example 199, 5-{2-amino-[1,2,4]triazolo[1,5-a]pyridin-7-yl}-2-methoxy-6-methyl-N-{[3-(trifluoromethyl)phenyl]methyl}pyridine-3-carboxamide] was run?
**A.** 20 to 200 nM

**Q.** And the IC50 [2, 7]?
**A.** > 200 nM

**Q.** Which results are given for `COc1nc(C)c(-c2ccn3nc(N)nc3c2)cc1C(=O)NCc1cccc(OCC2CC2)c1` [Example 200, 5-{2-amino-[1,2,4]triazolo[1,5-a]pyridin-7-yl}-N-{[3-(cyclopropylmethoxy)phenyl]methyl}-2-methoxy-6-methylpyridine-3-carboxamide]?
**A.** IC50 [1, 6]: 20 to 200 nM; IC50 [2, 4]: 20 to 200 nM

**Q.** What does the source list for `COc1nc(C)c(-c2ccn3nc(N)nc3c2)cc1C(=O)NCc1cc(OC(F)(F)F)ccc1F` [Example 201, 5-{2-amino-[1,2,4]triazolo[1,5-a]pyridin-7-yl}-N-{[2-fluoro-5-(trifluoromethoxy)phenyl]methyl}-2-methoxy-6-methylpyridine-3-carboxamide]?
**A.** IC50 [1, 3]: < 20 nM; IC50 [2, 4]: 20 to 200 nM

**Q.** Which IC50 [1, 3] does the source give for `COc1nc(C)c(-c2ccn3nc(N)nc3c2)cc1C(=O)NCc1c(F)cc(F)cc1OCC1CCCC1` [Example 202, 5-{2-amino-[1,2,4]triazolo[1,5-a]pyridin-7-yl}-N-{[2-(cyclopentylmethoxy)-4,6-difluorophenyl]methyl}-2-methoxy-6-methylpyridine-3-carboxamide] here?
**A.** < 20 nM

**Q.** And the IC50 [2, 4]?
**A.** 20 to 200 nM

**Q.** `COc1nc(C)c(-c2ccn3nc(N)nc3c2)cc1C(=O)NCc1ncccc1OCC1CCCC1` [Example 203, 5-{2-amino-[1,2,4]triazolo[1,5-a]pyridine-7-yl}-N-{[3-(cyclopentylmethoxy)pyridin-2-yl]methyl}-2-methoxy-6-methylpyridine-3-carboxamide] was tested. Which IC50 [1, 3] did it give?
**A.** < 20 nM

**Q.** What about the IC50 [2, 4] of the same compound?
**A.** 20 to 200 nM

**Q.** Which results are given for `COc1nc(C)c(-c2ccn3nc(N)nc3c2)cc1C(=O)NCc1cccc(OC(F)F)c1` [Example 204, 5-{2-amino-[1,2,4]triazolo[1,5-a]pyridin-7-yl}-N-{[3-(difluoromethoxy)phenyl]methyl}-2-methoxy-6-methylpyridine-3-carboxamide]?
**A.** IC50 [1, 6]: 20 to 200 nM; IC50 [2, 7]: > 200 nM

**Q.** How did the IC50 [1, 3] turn out when `COc1nc(C)c(-c2ccn3nc(N)nc3c2)cc1C(=O)NC(C)c1ccccc1OC(F)(F)F` (stereo not shown) [Example 205, 5-{2-amino-[1,2,4]triazolo[1,5-a]pyridin-7-yl}-2-methoxy-6-methyl-N-{1-[2-(trifluoromethoxy)phenyl]ethyl}pyridine-3-carboxamide] was run?
**A.** < 20 nM

**Q.** And the IC50 [2, 5]?
**A.** < 20 nM

**Q.** Which results are given for `COc1nc(C)c(-c2ccn3nc(N)nc3c2)cc1C(=O)NCc1cc(F)ccc1OCC1CCCC1` [Example 206, 5-{2-amino-[1,2,4]triazolo[1,5-a]pyridin-7-yl}-N-{[2-(cyclopentylmethoxy)-5-fluorophenyl]methyl}-2-methoxy-6-methylpyridine-3-carboxamide]?
**A.** IC50 [1, 3]: < 20 nM; IC50 [2, 4]: 20 to 200 nM
